For 71 molecules, EC50, IC50 and outcome results are on record in PubChem BioAssay AID179 (DTP/NCI, 2004).

Activity calls are given as the source filed them.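 Rule for the calls: active = compounds giving half or more protection of infected cells from virus-caused growth loss, again on retest; inactive = the rest.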 Where a SMILES comes first, the peptide text is derived from it.

In this assay the test system is CEM cells HIV-1 protection, formazan growth assay. Description: NCI AIDS Antiviral Assay. As to conditions: for IC50: measured here: growth of uninfected CEM cells. In outline: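 Steps: treat uninfected and HIV-1-infected human CEM cells at five drug levels; quantify growth by soluble formazan; retest any compound reaching 50% protection; classify actives from the retest.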

As for `CCSc1nc(N)c2c(-c3ccccc3)c3c(nc2n1)CCC3`, the EC50 (commonly the concentration giving half of the maximal effect) is greater than 100 µM and the IC50 (in general, the concentration that gives 50% inhibition) was greater than 100 µM.
Consider `COc1ccc([C@]23CCC4(OCC(C)(C)CO4)[C@H]4CON(O[C@H](O[C@@H]5CCCCC5C(C)(C)c5ccccc5)C2)[C@@H]43)cc1OC` (some centres undefined), for which the EC50 is greater than 50.1 µM and the half-inhibitory concentration (IC50) is greater than 50.1 µM.
For the molecule `O=C(O)/C(=C/C=C/c1ccccc1)c1csc(-c2nc(/C(=C\C=C\c3ccccc3)C(=O)O)cs2)n1`, the EC50 was greater than 182 µM and the IC50 was greater than 100 µM.
For `CC1(SCC(N)C(=O)O)CC(=O)NC1=O` (centres undefined), the EC50 was greater than 200 µM and the IC50 was greater than 200 µM.
Turning to `O=C([CH-]C(=O)c1ccccc1)c1ccccc1.[CH3-].[CH3-].[CH3-].[Sn+4]`, the EC50 was greater than 35.5 µM and the IC50 was greater than 35.5 µM.
For `COC(=O)C(NC(=O)c1ccccc1)c1ccco1` (centres undefined), the EC50 was greater than 955 µM and the IC50 came out at 479 µM.
On to `CC1CCCc2c(CC3CC(=O)NC(=O)C3)nc(N)nc21` (centres undefined), for which the EC50 was greater than 200 µM and the IC50 is greater than 200 µM.
For the molecule `C=CCNc1ncnc2sc(SC)nc12`, the EC50 was greater than 200 µM and the IC50 worked out at 107 µM.
As to `CC(=O)N1C(=O)/C(=C\C(=O)c2ccc([N+](=O)[O-])cc2)c2ccccc21`, the EC50 is greater than 200 µM and the IC50 was found to be 2.82 µM.
In the case of `O=C1NC(=S)N/C1=C\c1cc2c(=O)c3ccccc3sc2s1`, the EC50 was 75.9 µM and the IC50 came to 81.3 µM.
For the molecule `O=C(Oc1ccccc1)C(c1ccccc1)c1ccccc1`, the EC50 is greater than 102 µM and the IC50 was greater than 102 µM.
On to `C[C@H](CCCN1CCOCC1)[C@H]1CC[C@H]2[C@@H]3CC[C@@H]4C[C@H](O)CC[C@]4(C)[C@H]3CC[C@]12C`, for which the EC50 is greater than 50.1 µM and the IC50 was found to be 9.12 µM.
Consider `N#C/C(=C\c1ccc(O)c(O)c1)C(=O)NCCCNC(=O)/C(C#N)=C/c1ccc(O)c(O)c1`, for which the EC50 was greater than 200 µM and the IC50 worked out at 66.1 µM.
As to `COc1ccccc1C12OC(=O)C1(C)Oc1ccccc1C2=O` (centres undefined), the result was inactive.
Turning to `CC(OCc1ccccc1)C(NC(=O)C1CSSCC(NC(=O)C(Cc2ccccc2)NC(=O)OCc2ccccc2)C(=O)NC(Cc2ccccc2)C(=O)NC(Cc2cn(C=O)c3ccccc23)C(=O)NC(CCCCNC(=O)OCc2ccccc2)C(=O)NC(C(C)OCc2ccccc2)C(=O)N1)C(N)=O` (centres undefined), the EC50 is greater than 100 µM and the IC50 stood at 4.47 µM.
Regarding `CCOC(=O)/C(C=Nc1c(C)n(C)n(-c2ccccc2)c1=O)=C(/O)c1ccccc1`, the EC50 was greater than 200 µM and the IC50 is greater than 200 µM.
Regarding `O=C1C(S(=O)(=O)c2ccccc2)=C(CS(=O)(=O)c2ccccc2)[C@@H](OCc2ccccc2)[C@@H]1OCc1ccccc1`, the EC50 was greater than 20 µM and the IC50 worked out at 9.55 µM.
The like results for `CCOC(=O)C1=C(C)N(NC(=O)OC)C2(N)N(NC(=O)OC)C(C)=C(C(=O)OCC)C12C#N` (centres undefined) were, in that order, greater than 537 µM and greater than 537 µM.
As for `CC(C)N1C(C)[C@@H](c2ccccc2)O[P@]1(=O)CC1=CCCCC1` (some centres undefined), the result was inactive.
On to `Oc1ccc2ccccc2c1NCn1nc(CCCCCCCCc2nn(CNc3c(O)ccc4ccccc34)c(=S)o2)oc1=S`, for which the EC50 is greater than 200 µM and the IC50 amounted to 37.2 µM.
As to `NC(=O)CNCCS(=O)(=O)O`, the EC50 is greater than 200 µM and the IC50 was greater than 200 µM.
On to `O=C(CN1CCOCC1)NC1=Nc2ncccc2C(=O)NN1`, for which the EC50 was greater than 200 µM and the IC50 was determined as 115 µM.
As to `NC(N)=NS(=O)(=O)c1ccc(NCc2c3ccccc3nc3ccccc23)cc1`, the EC50 was greater than 2 µM and the IC50 was determined as 0.195 µM.
Consider `N#CC(C#N)=CNC(=S)Nc1ccc(Cl)c(Cl)c1`, for which the EC50 was greater than 200 µM and the IC50 was 15.1 µM.
The like results for `CCCCCCCCCCCCC1N=C(N)N2CCCC2=C1C(=O)OC` (centres undefined) were, in that order, greater than 200 µM and 4.9 µM.
Consider `CSc1nc(NC(=O)c2ccc([N+](=O)[O-])cc2)c(C(=O)NC(C)C)s1`, for which the EC50 was greater than 200 µM and the IC50 worked out at 138 µM.
In the case of `CCN(CC)[Se]c1ccccc1`, the result was inactive.
The same measure, in the same setting: in the case of `CC(C)C(=O)/C=C/c1ccc(Cl)cc1` it was “inactive”.
Consider `O=C1OCCCCCCOC(=O)c2ccccc2SSc2ccccc21`, for which the EC50 was greater than 200 µM and the IC50 is greater than 200 µM.
Regarding `CCOC(=O)c1cnc2sc3ccc4ccccc4c3n2c1=O`, the EC50 was greater than 27.5 µM and the IC50 was greater than 27.5 µM.
With `C/C=C/C(=O)N1C(=O)OC[C@@H]1c1ccccc1`, the EC50 was greater than 200 µM and the IC50 turned out to be 6.92 µM.
The like results for `S=c1cc(S)sc2c1c(=S)sc1nc3ccccn3c(=S)c12` were, in that order, greater than 9.55 µM and greater than 9.55 µM.
With `Nn1c(CCCCCCCCc2nnc(COc3c(O)ccc4ccccc34)n2N)nnc1COc1c(O)ccc2ccccc12`, the EC50 is greater than 200 µM and the IC50 amounted to 170 µM.
`COc1ccc([N+](=O)[O-])c(/C(C#N)=C/c2ccccc2)c1`: the EC50 is greater than 200 µM and the IC50 stood at 12.3 µM.
The like results for `BrCc1ccccc1C[P+](c1ccccc1)(c1ccccc1)c1ccccc1` were, in that order, greater than 200 µM and 2.45 µM.
The matching figures for `CN(C)CC1(C)Cc2cc(Cl)sc2C1=O` (centres undefined): greater than 200 µM and greater than 200 µM.
`O=C1CCC2(c3ccc(F)cc3)Nc3cc(Cl)ccc3N12` (centres undefined): the outcome was inactive.
For the molecule `Oc1ccccc1/C=N\NC(=S)Nc1ccc2cn[nH]c2c1`, the EC50 is greater than 200 µM and the IC50 was determined as 126 µM.
Turning to `N#Cc1ccccc1NC(=O)C(=O)C(C(=O)c1ccccc1F)C1OC(=O)c2ccccc21` (centres undefined), the EC50 was greater than 112 µM and the IC50 came to 16.2 µM.
`N#Cc1c(-c2ccccc2)/c(=C\O)c(=O)n2c1nc1ccccc12`: the EC50 was greater than 200 µM and the IC50 is 32.4 µM.
Consider `C[C@]12CC[C@H](O)CC1=CC[C@@H]1C2CC[C@]2(C)NC(=O)C(C#N)CC12` (some centres undefined), for which the result was inactive.
`CC(=O)N=C1N(/C=C2\C(=O)Oc3ccccc3C2=O)C(=O)/C(=C/c2ccc(NC(C)=O)cc2)N1C`: the EC50 was greater than 200 µM and the IC50 was greater than 200 µM.
Take `CN(C)S(=O)(=O)c1c(N)ncn1C`: the EC50 is greater than 1230 µM and the IC50 is greater than 1230 µM.
With `O=C1CC(c2ccccc2)NC(=O)N1CCN1CCOCC1` (centres undefined), the EC50 is greater than 200 µM and the IC50 was greater than 200 µM.
Consider `O=c1c(CCO)c(C2CC2)n2n1CCCC2`, for which the EC50 was greater than 1120 µM and the IC50 is greater than 200 µM.
The like results for `CNC(=O)Nc1cc2c3c(c1)CCCN3CCC2` were, in that order, 135 µM and 178 µM.
The like results for `O=C1CC2(C[C@@H]3CCCCCCCCC[C@@H](C3)C2)N1` (some centres undefined) were, in that order, greater than 200 µM and 40.7 µM.
Turning to `Cc1c(C)c(C)c(-n2c(=O)n(C)c(=O)n2-c2cc(C(C)(C)C)cc(C(C)(C)C)c2O)c(C)c1C`, the EC50 is greater than 200 µM and the IC50 is 13.2 µM.
For `C=CC1(C)CN(Cc2ccccc2)C(C(=O)OCC)O1` (centres undefined), the EC50 was greater than 26.3 µM and the IC50 is greater than 26.3 µM.
As for `O=C(CCl)N1CCN(c2ccccc2)CC1`, the EC50 is greater than 1050 µM and the IC50 is 1.2 µM.
For the molecule `O=C(NC1C=Nc2ccc(Cl)cc2NC1=O)c1ccc(Cl)cc1` (centres undefined), the EC50 was greater than 200 µM and the IC50 is greater than 200 µM.
Take `COc1c(O)cc2c(c1O)C1O[C@H](CO)C(O)[C@H](O)[C@H]1OC2=O` (some centres undefined): the EC50 is greater than 200 µM and the IC50 is greater than 200 µM.
With `O=C1N2CCN=C2c2ccccc2C1(O)c1ccccc1` (centres undefined), the EC50 was greater than 200 µM and the IC50 is greater than 200 µM.
Regarding `CC(=O)C(N=NC1CCC(S(=O)(=O)NB2N=CS2)CC1)C(=O)Nc1ccccc1C` (centres undefined), the EC50 is greater than 11.5 µM and the IC50 was greater than 11.5 µM.
Consider `CC(C)CC(NC(=O)C(Cc1ccc(O)cc1)NC(=O)C(CO)NC(=O)C(N)CCC(N)=O)C(=O)NCC(=O)O` (centres undefined) (H-QSYLG-OH; configuration not given here), for which the outcome was inactive.
For `CN1C(c2ccccc2)N1C` (centres undefined), the EC50 was greater than 1700 µM and the IC50 was greater than 1700 µM.
`NC(=O)CC1C(CO)OC(n2ccc(=O)[nH]c2=O)C1O` (centres undefined): the EC50 was greater than 200 µM and the IC50 was greater than 200 µM.
In the case of `O=c1cc(C(F)(F)F)[nH]c2c3ncccc3c3nc4ccccc4nc3c12`, the EC50 was 0.214 µM and the IC50 turned out to be 2.82 µM.
`Ic1cc2c(cc1C1SCCCS1)OCO2`: the EC50 is greater than 251 µM and the IC50 was greater than 251 µM.
Turning to `CCCCCCCC1c2cc3[nH]c(cc4nc(cc5[nH]c(cc(n2)[C@@]1(C)CC(=O)N(C)C)c(C)c5CCC(=O)O)C(CCC(=O)O)=C4C)cc3C` (some centres undefined), the EC50 is greater than 200 µM and the IC50 turned out to be 7.59 µM.
On to `C(#CCN1CCCC1)CCCN1CCCC1`, for which the EC50 is greater than 200 µM and the IC50 was greater than 200 µM.
Take `O=C(/C=C/c1ccc(O)cc1)c1ccc2c(c1)OCO2`: the EC50 was greater than 200 µM and the IC50 turned out to be 33.1 µM.
The matching figures for `CN1Nc2ccccc2CC1=O`: greater than 1550 µM and 55 µM.
On to `O=C(NN1C(=O)C(Cl)C1c1cccc(O)c1)c1ccccc1O` (centres undefined), for which the EC50 is greater than 151 µM and the IC50 was 141 µM.
Regarding `CC1(C)CNC[C@@]2(C)OCCO[C@@]3(C)CNCC(C)(C)[N-]C(=O)[C@@](C)(CNCC(C)(C)[N-]C3=O)OCCO[C@](C)(CNCC(C)(C)[N-]C2=O)C(=O)[N-]1.[Cu+2].[Cu+2]`, the EC50 is greater than 200 µM and the IC50 is greater than 200 µM.
In the case of `SC[C@@H]1COC[C@H](CS)S1`, the EC50 was greater than 95.5 µM and the IC50 is greater than 95.5 µM.
As to `COC(=O)C(C)(N=Cc1ccccc1)c1ccccc1` (centres undefined), the EC50 is greater than 200 µM and the IC50 is greater than 200 µM.
Take `COc1ccc(N[C@H]([C@@H](c2ccccc2)S(=O)c2ccc(C)cc2)C(F)(F)F)cc1` (some centres undefined): the EC50 is greater than 200 µM and the IC50 came out at 34.7 µM.
The like results for `CC1=NCCc2c1[nH]c1cc(O)ccc21` were, in that order, greater than 398 µM and greater than 100 µM.
Take `c1ccc(CN(Cn2cccn2)Cn2cccn2)nc1`: the result was inactive.
As to `CCCNC(=O)c1ccccc1C(=O)C(Cl)c1ccccc1` (centres undefined), the EC50 is greater than 214 µM and the IC50 was greater than 214 µM.
